From US20240148821A1, “PHARMACEUTICAL USE OF CYCLIC PEPTIDE COMPOUND” (CHUGAI SEIYAKU KABUSHIKI KAISHA, priority 2021, published 2024)
Numbered stars: 1 amine (or outer) side, 2 acyl side, 3 side chain; on linkers, the order of the positions; unused ones are H or OH. Bridge positions count the residues as written; N and C are the ends. Square brackets hold non-standard residues; d marks the D form. Peptide text beside a SMILES is read from it. * marks the point of attachment. hPhe(3-Cl-4-CF3) = N[C@@H](CCc1ccc(C(F)(F)F)c(Cl)c1)C(=O)O; X115 = O=C([C@H](CCc1ccc(S(F)(F)(F)(F)F)cc1)N[*:1])[*:2]; NMePhe(4-Cl) = CN[C@@H](Cc1ccc(Cl)cc1)C(=O)O; NMePhe(4-Me) = CN[C@@H](Cc1ccc(C)cc1)C(=O)O; NMePhe(2-Cl) = CN[C@@H](Cc1ccccc1Cl)C(=O)O; NMeGly(cPent) = CN[C@H](C(=O)O)C1CCCC1; Phe(3-I) = N[C@@H](Cc1cccc(I)c1)C(=O)O; NMeCha = CN[C@@H](CC1CCCCC1)C(=O)O; NMeChg = CN[C@H](C(=O)O)C1CCCCC1; NMeF = CN[C@@H](Cc1ccccc1)C(=O)O; NMeT = CN[C@H](C(=O)O)[C@@H](C)O; NMeD = CN[C@@H](CC(=O)O)C(=O)O; NMeL = CN[C@@H](CC(C)C)C(=O)O; NMeNva = CCC[C@H](NC)C(=O)O; NMeV = CN[C@H](C(=O)O)C(C)C; d(β3hA) = C[C@@H](N)CC(=O)O; NMeA = CN[C@@H](C)C(=O)O; NMeAib = CNC(C)(C)C(=O)O; Nle = CCCC[C@H](N)C(=O)O; Piperidide = C1CCN(*)CC1; Ac5c = NC1(C(=O)O)CCCC1; Aze = O=C(O)[C@@H]1CCN1; NBuGly = CCCCNCC(=O)O; βAla = NCCC(=O)O; Sar = CNCC(=O)O

System: Human pancreatic cancer cell line AsPC-1 (G12D mutation Kras)
Test: AsPC-1 cell growth inhibition (AsPC-1 CGI)
Type: cell-based
Settings: read-out: AsPC-1 cell growth inhibition, 50% growth inhibitory concentration (IC50 value); 96 hours, CellTiter-Glo, values classified in ranges
Experimental: Test compounds were serially dilated with dimethyl sulfoxide, and 200 nL was then dispensed to a U-bottom 96-well plate using Labcyte Echo. […] The cell suspension was dispensed to a. plate containing a test compound at 100 μL per well and incubated at 37° C. in a 5% carbon dioxide gas incubator. 96 hours later, 80 μL of CellTiter-Glo (Promega) was added to each well and fluorescence was measured.

**Q.** `CC[C@H](C)[C@@H]1NC(=O)CCNC(=O)[C@H](Cc2ccccc2)N(C)C(=O)[C@H](C2CCCCC2)N(C)C(=O)C2(CCCC2)NC(=O)[C@@H]2CCCN2C(=O)[C@H](CCc2ccc(C(F)(F)F)c(Cl)c2)NC(=O)CN(C)C(=O)[C@H](CC2CCCCC2)N(C)C(=O)CN(C)C(=O)CN(C)C1=O` [Compound 1007] (cyclo([Ac5c][NMeChg][NMeF][βAla]I[Sar][Sar][NMeCha][Sar][hPhe(3-Cl-4-CF3)]P)) was tested. Which IC50 did it give?
**A.** > 500 nM

**Q.** How did the IC50 turn out when `CC[C@H](C)[C@@H]1NC(=O)[C@H](CC(C)C)N(C)C(=O)C[C@@H](C(=O)N(C)C)N(C)C(=O)[C@H](C2CCCC2)N(C)C(=O)C2(CCCC2)NC(=O)[C@H](Cc2ccccc2Cl)N(C)C(=O)[C@H](CCc2ccc(C(F)(F)F)c(Cl)c2)NC(=O)CN(C)C(=O)[C@H](CC2CCCCC2)N(C)C(=O)[C@@H]2CCN2C(=O)[C@H](C)N(C)C1=O` [Compound 1009] ([NMeL]I[NMeA][Aze][NMeCha][Sar][hPhe(3-Cl-4-CF3)][NMePhe(2-Cl)][Ac5c][NMeGly(cPent)][NMeD]-NMe2; lactam N-11) was run?
**A.** > 500 nM

**Q.** With `CC[C@H](C)[C@@H]1NC(=O)[C@H](CC(C)C)N(C)C(=O)C[C@@H](C(=O)N2CCCCC2)N(C)C(=O)[C@H](CC(C)C)NC(=O)C(C)(C)N(C)C(=O)[C@H](Cc2ccccc2)NC(=O)[C@H](Cc2cccc(I)c2)NC(=O)CN(C)C(=O)[C@H](Cc2ccc(C)cc2)N(C)C(=O)[C@@H]2CCN2C(=O)[C@H](C)N(C)C1=O` [Compound 1015] ([NMeL]I[NMeA][Aze][NMePhe(4-Me)][Sar][Phe(3-I)]F[NMeAib]L[NMeD]-Piperidide; lactam N-11) as the compound, how does the IC50 read?
**A.** > 500 nM

**Q.** With `CC[C@H](C)[C@@H]1NC(=O)[C@H](CC(C)C)N(C)C(=O)C[C@@H](C)NC(=O)[C@H](C(C)C)N(C)C(=O)C2(CCCC2)NC(=O)[C@@H]2CCCN2C(=O)[C@H](CCc2ccc(C(F)(F)F)c(Cl)c2)NC(=O)CN(C)C(=O)[C@H](CC2CCCCC2)N(C)C(=O)CN(C)C(=O)[C@@H]2CCN2C1=O` [Compound 1020] (cyclo([Ac5c][NMeV][d(β3hA)][NMeL]I[Aze][Sar][NMeCha][Sar][hPhe(3-Cl-4-CF3)]P)) as the compound, how does the IC50 read?
**A.** > 500 nM

**Q.** Which IC50 does the source give for `CC[C@H](C)[C@@H]1NC(=O)[C@H](CC(C)C)N(C)C(=O)C[C@@H](C)NC(=O)[C@H](CC(C)C)N(C)C(=O)C2(CCCC2)NC(=O)[C@@H]2CCCN2C(=O)[C@H](CCc2ccc(S(F)(F)(F)(F)F)cc2)NC(=O)CN(C)C(=O)[C@H](CC2CCCCC2)N(C)C(=O)CN(C)C(=O)CN(C)C1=O` [Compound 1021] (cyclo([Ac5c][NMeL][d(β3hA)][NMeL]I[Sar][Sar][NMeCha][Sar][X115]P)) here?
**A.** > 500 nM

**Q.** Which IC50 does the source give for `CCC[C@H]1C(=O)N(C)CC(=O)N[C@@H](CCc2ccc(C(F)(F)F)c(Cl)c2)C(=O)N2CCC[C@H]2C(=O)NC2(CCCC2)C(=O)N(C)[C@@H](C(C)C)C(=O)N(C)[C@H](C(=O)N2CCCCC2)CC(=O)N(C)[C@@H](CC(C)C)C(=O)N[C@@H]([C@@H](C)CC)C(=O)N(C)[C@@H](C)C(=O)N2CC[C@H]2C(=O)N1C` [Compound 1027] ([NMeL]I[NMeA][Aze][NMeNva][Sar][hPhe(3-Cl-4-CF3)]P[Ac5c][NMeV][NMeD]-Piperidide; lactam N-11) here?
**A.** > 500 nM

**Q.** How did the IC50 turn out when `CCCCN1CC(=O)N(C)[C@@H](CC2CCCCC2)C(=O)N(C)CC(=O)N[C@@H](CCc2ccc(C(F)(F)F)c(Cl)c2)C(=O)N2CCC[C@H]2C(=O)NC2(CCCC2)C(=O)N(C)[C@@H](C(C)C)C(=O)N[C@H](C)CC(=O)N(C)[C@@H](CC(C)C)C(=O)N[C@@H]([C@@H](C)CC)C(=O)N(C)CC1=O` [Compound 1033] (cyclo([Ac5c][NMeV][d(β3hA)][NMeL]I[Sar][NBuGly][NMeCha][Sar][hPhe(3-Cl-4-CF3)]P)) was run?
**A.** > 500 nM

**Q.** Which IC50 does the source give for `CC[C@H](C)[C@@H]1NC(=O)[C@H](CC(C)C)N(C)C(=O)C[C@@H](C(=O)N2CCCCC2)N(C)C(=O)[C@H]([C@@H](C)O)N(C)C(=O)C2(CCCC2)NC(=O)[C@@H]2CCCN2C(=O)[C@H](CCc2ccc(C(F)(F)F)c(Cl)c2)NC(=O)CN(C)C(=O)[C@H](CC2CCCCC2)N(C)C(=O)CN(C)C(=O)CN(C)C1=O` [Compound 1041] ([NMeL]I[Sar][Sar][NMeCha][Sar][hPhe(3-Cl-4-CF3)]P[Ac5c][NMeT][NMeD]-Piperidide; lactam N-11) here?
**A.** > 500 nM

**Q.** Which IC50 does the source give for `CCCC[C@@H]1NC(=O)[C@H](Cc2ccccc2)NC(=O)CN(C)C(=O)[C@H](Cc2ccc(Cl)cc2)N(C)C(=O)CN(C)C(=O)CN(C)C(=O)[C@H]([C@@H](C)CC)NC(=O)[C@H](CC(C)C)N(C)C(=O)C[C@@H](C(=O)N2CCCCC2)N(C)C(=O)[C@H](CC(C)C)NC(=O)C(C)(C)N(C)C1=O` [Compound 1043] ([NMeL]I[Sar][Sar][NMePhe(4-Cl)][Sar]F[Nle][NMeAib]L[NMeD]-Piperidide; lactam N-11) here?
**A.** > 500 nM
